Molecular target: His6 USP28 (Homo sapiens (Human), UniProt Q96RU2)
Experiment: Ubiquitin-Rhodamine 110 assay to determine USP28 IC50
Type: biochemical
Conditions: USP28 150 pM, Ub-Rho110 41 nM, 2 h pre-incubation with enzyme, fluorescence read
Description: Example 21. Ubiquitin-Rhodamine 110 Assay to Determine USP28 IC50
Each assay was performed in a final volume of 8 μl in assay buffer containing 10 mM HEPES pH 7.3 ((1 M, pH 7.3 solution, (VWR J848), 100 mM NaCl (5 M, Corning 46-032-CV), 0.01% Triton X-100 (Sigma #T8787), 3.5 mM DTT (1 M, Sigma #43819) and 0.00375% BSA (10%, Calbiochem, #126609)). The assay buffer pH was adjusted to 7.5 using 1 N NaOH (JT Baker, #5000-03). Stock compounds were stored at −80° C. as a 25 mM in DMSO solution along with their respective 20 point 2 fold serial dilutions. For the dose responses, stock compound plates were allowed to come to room temperature the day of the assay. […] of the serial dilution series were pre stamped into assay plates (Black, high base, medium binding, Greiner #782076) for a final top screening concentration of 125 μM (DMSO final concentration=0.5%). Enzyme (His6 USP28, BostonBiochem, #E-570) concentration and incubation times were optimized for the maximal signal to background while maintaining the initial velocity conditions at a fixed substrate concentration. The final concentration of the enzyme in the assay was 150 pM. Final substrate (Ub-Rhol10, Ubiquitin-Rhodamine 110, UBPBio, #M3020) concentration was 41 nM. 2 μl of 4× enzyme was added to assay plates (pre stamped with compound) and incubated for 2 h at room temperature. […] was subsequently added to the assay plates and incubated for 2 h at room temperature. Fluorescence was then read on the Envision (Excitation 485 nm and Emission at 535 nm, Perkin Elmer).

His6 USP28, sequence (Q96RU2 whole entry): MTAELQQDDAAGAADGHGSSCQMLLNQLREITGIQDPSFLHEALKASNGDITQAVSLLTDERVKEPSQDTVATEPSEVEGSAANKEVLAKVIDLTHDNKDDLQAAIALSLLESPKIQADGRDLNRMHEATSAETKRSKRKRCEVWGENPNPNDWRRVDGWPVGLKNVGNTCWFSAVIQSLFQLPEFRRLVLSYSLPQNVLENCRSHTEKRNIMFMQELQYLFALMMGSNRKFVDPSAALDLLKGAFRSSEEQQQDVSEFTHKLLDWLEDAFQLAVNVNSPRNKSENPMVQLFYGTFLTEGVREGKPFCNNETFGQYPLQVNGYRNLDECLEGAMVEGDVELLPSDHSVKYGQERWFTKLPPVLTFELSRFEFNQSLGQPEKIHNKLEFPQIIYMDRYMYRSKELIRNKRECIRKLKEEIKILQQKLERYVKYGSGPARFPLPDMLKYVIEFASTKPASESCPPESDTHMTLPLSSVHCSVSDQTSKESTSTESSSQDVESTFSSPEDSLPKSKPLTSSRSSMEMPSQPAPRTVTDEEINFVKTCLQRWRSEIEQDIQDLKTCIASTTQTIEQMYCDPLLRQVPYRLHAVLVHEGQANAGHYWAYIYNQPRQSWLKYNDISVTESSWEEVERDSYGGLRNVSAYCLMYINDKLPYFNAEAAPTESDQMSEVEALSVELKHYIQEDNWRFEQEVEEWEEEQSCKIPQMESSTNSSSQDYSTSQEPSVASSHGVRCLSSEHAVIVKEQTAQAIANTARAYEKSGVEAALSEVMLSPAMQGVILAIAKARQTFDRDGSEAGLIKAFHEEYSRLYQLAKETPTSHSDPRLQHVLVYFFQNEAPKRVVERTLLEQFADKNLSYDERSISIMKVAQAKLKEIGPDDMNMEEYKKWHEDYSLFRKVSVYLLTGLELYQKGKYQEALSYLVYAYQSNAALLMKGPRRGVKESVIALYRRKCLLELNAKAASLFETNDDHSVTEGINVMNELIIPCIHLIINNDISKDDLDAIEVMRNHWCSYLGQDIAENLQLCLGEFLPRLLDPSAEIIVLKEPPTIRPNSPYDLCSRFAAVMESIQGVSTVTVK

| SMILES | IC50 |
| --- | --- |
| Cc1oc(Cc2ccnc(Cl)c2)nc1-c1ccc(OCc2ccc(C(=O)N(C)C)cn2)cc1 [Compound 31, 6-[(4-{2-[(2-Chloropyridin-4-yl)methyl]-5-methyl-1,3-oxazol-4-yl}phenoxy)methyl]-N,N-dimethylpyridine-3-carboxamide] | 50 to 500 nM |
| Cc1oc(Cc2cccc(Cl)c2)nc1-c1ccc(OCc2cnc(C(=O)N(C)C)cn2)cc1 [Compound 28, 5-[(4-{2-[(3-Chlorophenyl)methyl]-5-methyl-1,3-oxazol-4-yl}phenoxy)methyl]-N,N-dimethylpyrazine-2-carboxamide] | < 50 nM |
| CN[C@H]1CCN(C(=O)c2ccc(COc3ccc(-c4nc(Cc5cccc(Cl)c5)oc4C)cc3)nc2)C1 [Compound 35, (3S)-1-{6-[(4-{2-[(3-Chlorophenyl)methyl]-5-methyl-1,3-oxazol-4-yl}phenoxy)methyl]pyridine-3-carbonyl}-N-methylpyrrolidin-3-amine] | < 50 nM |
| CN[C@@H]1CCCN(C(=O)c2ccc(COc3ccc(-c4nc(Cc5cccc(Cl)c5)oc4C)cc3)nc2)C1 [Compound 41, (3R)-1-{6-[(4-{2-[(3-Chlorophenyl)methyl]-5-methyl-1,3-oxazol-4-yl}phenoxy)methyl]pyridine-3-carbonyl}-N-methylpiperidin-3-amine] | < 50 nM |

Continued, values first:

| IC50 | SMILES |
| --- | --- |
| 50 to 500 nM | C[C@@H]1C[C@@H](NC(=O)COc2ccc(-c3nc(Cc4ccc(Cl)cc4)no3)cc2)CN1C#N [Compound 4, 2-(4-{3-[(4-Chlorophenyl)methyl]-1,2,4-oxadiazol-5-yl}phenoxy)-N-[(3R,5R)-1-cyano-5-methylpyrrolidin-3-yl]acetamide] |
| > 1000 nM | COc1cccc(Cc2noc(-c3ccc(OCC(=O)N[C@@H]4C[C@@H](C)N(C#N)C4)cc3)n2)c1 [Compound 7, N-[(3R,5R)-1-Cyano-5-methylpyrrolidin-3-yl]-2-(4-{3-[(3-methoxyphenyl)methyl]-1,2,4-oxadiazol-5-yl}phenoxy)acetamide] |
| 500 to 1000 nM | C[C@@H]1C[C@@H](NC(=O)COc2ccc(-c3nc(Cc4cccc(C#N)c4)no3)cc2)CN1C#N [Compound 8, N-((3R,5R)-1-Cyano-5-methylpyrrolidin-3-yl)-2-(4-(3-(3-cyanobenzyl)-1,2,4-oxadiazol-5-yl)phenoxy)acetamide] |
| > 1000 nM | N#CN1C[C@H](NC(=O)COc2ccc(-c3nc(Cc4ccccc4)no3)cc2)C[C@H]1CF [Compound 1, 2-[4-(3-Benzyl-1,2,4-oxadiazol-5-yl)phenoxy]-N-[(3R,5S)-1-cyano-5-(fluoromethyl)pyrrolidin-3-yl]acetamide] |

From patent publication US20240425513A1, “OXAZOLE, OXADIAZOLE, AND INDOLE DERIVATIVES FOR THE INHIBITION OF USP28” (Carmot Therapeutics, Inc., priority 2021, published 2024)
